Laboratory results: US20240116922A1, “IMIDAZO[1,2-A]PYRIDINE DERIVATIVES AS IRAK4 INHIBITORS AND THEIR USE IN THE TREATMENT OF DISEASE” (BIOGEN MA INC., priority 2020, published 2024)
≈ marks a conversion by molar mass, not a printed value. Structures can show the parent of a compound that is named as a salt.

Legend:
[1] = molecular target: MDR1 (Homo sapiens (Human), UniProt P08183); experiment: in vitro; settings: MDCK-MDR1
[2] = Kinetic solubility assay (CLND), pH 6.8; type: physicochemical; settings: aqueous buffer, kinetic from dmso stock; potassium phosphate buffer pH 6.8, 2% DMSO, 24 hours at ambient temperature
[3] = Kpuu assay (in vivo brain-to-plasma unbound partition); settings: brain (unbound) versus plasma (unbound); intravenous infusion 4 to 24 h; unbound brain/plasma ratio; read-out: Brain Kpu, u
Description: For the brain-to-plasma partition coefficient (Kp) evaluation, a dosing solution was intravenously infused into animals at a constant flow rate for 4 to 24 h. Blood samples were serially collected during infusion, and CSF and brain samples were harvested at the end of infusion.
Tissue samples were typically homogenized in phosphate buffer saline (PBS) using a bead ruptor.
CSF samples were typically diluted with 8% BSA in PBS to prevent from non-specific binding. Artificial CSF (aCSF) is used as the surrogate matrix.
Calibration curves were prepared by spiking the analyte(s) into blank matrices, which were processed together with plasma, tissue homogenate and/or CSF samples by protein precipitation using a proper organic solvent (e.g. acetonitrile and methanol) containing generic analogue internal standards (e.g. verapamil, chrysin and glyburide). Matrix matching was used when analyzing multiple matrices in the same run. Samples above the upper limit of quantitation (ULOQ) needed to be diluted into the calibration range using either a pre-extraction or post-extraction dilution approach.
Processed samples were analyzed by LC-MS/MS using a proper method performing within the acceptable sensitivity, selectivity, precision and accuracy. For an analytical run to be accepted, over 75% of the calibration standards in the dual calibration curves needed to be within 20% of the nominal concentrations.
Brain concentrations were compared against plasma concentrations at the corresponding timepoint for the calculation of partition coefficient (Kp).
Unbound drug partition coefficient (Kpuu), defined as the ratio of unbound drug partition across the blood-brain barrier, was calculated using the equation below:
[formula] • Cb: measured total drug concentration in brain • Fub: unbound drug fraction in brain • Cp: measured total drug concentration in plasma • Fup: unbound drug fraction in plasma
The unbound fraction of the test compound was determined based on the protocols described below.
% Free=(PAR of buffer side/PAR of plasma side)*100 • PAR—Peak area ratio (PAR) • Fu % Free. 100 • Fu=fraction unbound

[4] = molecular target: IRAK4 (Homo sapiens (Human), UniProt Q9NWZ3); experiment: IRAK4 MSD biochemical assay (2-hour 1 mM ATP); settings: 0.1 nM IRAK4, 1 mM ATP, 2 hour at room temperature
IRAK4, sequence (Q9NWZ3 whole entry): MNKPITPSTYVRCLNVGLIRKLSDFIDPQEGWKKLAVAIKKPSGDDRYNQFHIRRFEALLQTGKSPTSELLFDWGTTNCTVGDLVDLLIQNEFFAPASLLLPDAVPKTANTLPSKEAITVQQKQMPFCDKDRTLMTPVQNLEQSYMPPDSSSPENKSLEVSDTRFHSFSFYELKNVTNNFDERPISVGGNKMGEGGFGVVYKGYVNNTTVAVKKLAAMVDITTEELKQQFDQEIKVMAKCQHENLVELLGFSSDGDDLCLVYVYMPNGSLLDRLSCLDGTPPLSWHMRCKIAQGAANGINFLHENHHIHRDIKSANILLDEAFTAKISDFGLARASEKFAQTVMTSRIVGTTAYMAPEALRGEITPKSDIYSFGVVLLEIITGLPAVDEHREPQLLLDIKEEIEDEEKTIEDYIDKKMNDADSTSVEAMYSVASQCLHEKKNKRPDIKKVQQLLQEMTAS
Description: The 2-hour 1 mM ATP Biochemical Assay employed a MesoScale Detection (MSD) format.
The activity was quenched with 11 μl of 70 mM EDTA, pH 8.
To detect the phosphorylated biotinylated peptide substrate, 30 μl of the quenched reaction mixture was added to equivalent wells of a 384 well streptavidin coated MesoScale plate (Meso Scale Discovery #L21SA-1). After a 1 hour incubation of the plate for 1 hour at room temperature with gentle mixing, the plate wells were washed 3 times with 50 mM Tris, pH 7.5, 150 mM NaCl, 0.02% Tween-20.
A 25 μl volume of 1:500 anti-P-Threonine Rabbit polyclonal Antibody plus 1:500 Goat-anti-Rabbit Sulfo Tag Antibody (Meso Scale Discovery R32AB-1) in 50 mM Tris, pH 7.5, 150 mM NaCl, 0.02% Tween-20 plus 2% BSA was then added to each well. After a 1-hour incubation of the plate for 1 hour at room temperature with gentle mixing, the plate wells were washed, 3 times with 50 mM Tris, pH 7.5, 150 mM NaCl, 0.02% Tween-20.

MDR1, sequence (P08183 whole entry): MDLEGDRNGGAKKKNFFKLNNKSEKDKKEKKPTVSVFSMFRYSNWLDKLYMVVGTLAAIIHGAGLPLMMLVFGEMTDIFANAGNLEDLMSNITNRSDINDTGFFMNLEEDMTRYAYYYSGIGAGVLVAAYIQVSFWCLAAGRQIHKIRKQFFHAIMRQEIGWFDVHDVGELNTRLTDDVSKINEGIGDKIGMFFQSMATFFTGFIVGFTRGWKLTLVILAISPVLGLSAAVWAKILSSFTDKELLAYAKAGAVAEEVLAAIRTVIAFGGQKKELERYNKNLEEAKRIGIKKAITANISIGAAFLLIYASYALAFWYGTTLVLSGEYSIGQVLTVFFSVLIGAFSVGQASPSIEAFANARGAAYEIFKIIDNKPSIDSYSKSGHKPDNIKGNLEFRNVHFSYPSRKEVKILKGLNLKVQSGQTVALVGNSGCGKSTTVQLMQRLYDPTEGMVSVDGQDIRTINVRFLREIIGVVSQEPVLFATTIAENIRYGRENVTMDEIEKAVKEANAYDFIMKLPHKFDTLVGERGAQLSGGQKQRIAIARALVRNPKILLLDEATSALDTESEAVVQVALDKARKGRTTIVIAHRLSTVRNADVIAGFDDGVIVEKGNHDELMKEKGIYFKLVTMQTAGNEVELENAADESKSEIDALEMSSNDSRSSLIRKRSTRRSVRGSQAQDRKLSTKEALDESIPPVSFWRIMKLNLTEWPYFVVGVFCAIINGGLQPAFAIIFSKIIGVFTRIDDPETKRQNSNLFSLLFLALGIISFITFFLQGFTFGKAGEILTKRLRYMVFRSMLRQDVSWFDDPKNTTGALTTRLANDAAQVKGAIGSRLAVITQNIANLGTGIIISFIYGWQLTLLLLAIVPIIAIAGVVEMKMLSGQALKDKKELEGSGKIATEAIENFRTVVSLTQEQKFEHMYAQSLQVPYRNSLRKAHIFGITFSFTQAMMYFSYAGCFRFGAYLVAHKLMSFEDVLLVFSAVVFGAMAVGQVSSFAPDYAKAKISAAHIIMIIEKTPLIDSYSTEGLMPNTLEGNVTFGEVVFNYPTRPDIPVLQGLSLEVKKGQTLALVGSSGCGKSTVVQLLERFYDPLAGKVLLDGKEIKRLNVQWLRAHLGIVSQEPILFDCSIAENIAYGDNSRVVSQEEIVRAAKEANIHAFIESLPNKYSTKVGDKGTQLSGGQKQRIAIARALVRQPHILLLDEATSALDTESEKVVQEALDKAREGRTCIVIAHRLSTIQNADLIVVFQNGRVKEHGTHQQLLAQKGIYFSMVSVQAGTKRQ

Compound	efflux ratio at 120 min, 1 μM [1]	solubility kinetic at 24 h [2] [µg/mL]	Kpuu (unbound brain-to-plasma partition coefficient) [3]	IC50 [4] [nM]
CC(C)Oc1cc2nc([C@@]34CC[C@@](C)(C3)OC4)cn2cc1C(=O)Nc1cccn(C)c1=O (single isomer, unassigned) [Comparator 3D, reference compound]	3.1	49.3 (≈ 113 µM)	1.1	–
CC(C)Oc1nc2nc([C@@]34CC[C@@](C)(C3)OC4)cn2cc1C(=O)Nc1cccc(C(F)F)n1 (single isomer, unassigned) [Comparator 4A, reference compound]	0.7	2 (≈ 4.37 µM)	0.4	–
CC(C)Oc1nc2nc([C@@]34CC[C@@](C)(C3)OC4)cn2cc1C(=O)Nc1cccn(C2CC2)c1=O (single isomer, unassigned) [Example 12]	–	22.3 (≈ 48.1 µM)	0.33	–
CC(C)Oc1nc2nc([C@@]34CC[C@@](CF)(C3)OC4)cn2cc1C(=O)Nc1cccn(C2CC2)c1=O (single isomer, unassigned) [Example 46]	–	9 (≈ 18.7 µM)	1.81	–
CC(C)Oc1nc2nc([C@@H]3CCCOC3)cn2cc1C(=O)Nc1cccn(C2CC2)c1=O (single isomer, unassigned) [Example 108]	4	–	0.52	0.1
COC[C@]12CC[C@](c3cn4cc(C(=O)Nc5cccn([C@H]6C[C@H]6F)c5=O)c(OC(C)C)nc4n3)(CO1)C2 (single isomer, unassigned) [Example 130]	–	63.6 (≈ 124 µM)	0.08	–
COC[C@@]12CC[C@@](c3cn4cc(C(=O)Nc5cccn([C@H]6C[C@H]6F)c5=O)c(OC(C)C)nc4n3)(CO1)C2 (single isomer, unassigned) [Example 132]	–	70.5 (≈ 138 µM)	0.14	–
CC(C)Oc1cc2nc(C34COC(C)(C3)C4)cn2cc1C(=O)Nc1cccn([C@H]2C[C@@H]2F)c1=O (single isomer, unassigned) [Example 155]	–	35.8 (≈ 76.7 µM)	0.36	–
CC(C)Oc1cc2nc(C34COC(C)(C3)C4)cn2cc1C(=O)Nc1cccc(C(F)F)n1 [Comparator 1A, N-(6-(difluoromethyl)pyridin-2-yl)-7-isopropoxy-2-(1-methyl-2-oxabicyclo[2.1.1]hexan-4-yl)imidazo[1,2-a]pyridine-6-carboxamide, reference compound]	0.9	2.1 (≈ 4.75 µM)	0.4	–
CC(C)Oc1nc2nc(C34COC(C)(C3)C4)cn2cc1C(=O)Nc1cccc(C(F)F)n1 [Comparator 2A, N-(6-(difluoromethyl)pyridin-2-yl)-7-isopropoxy-2-(1-methyl-2-oxabicyclo[2.1.1]hexan-4-yl)imidazo[1,2-a]pyrimidine-6-carboxamide, reference compound]	1.1	2.4 (≈ 5.41 µM)	0.4	–
Cc1cnc2c(NC(=O)c3cn4cc(C56COC(C)(C5)C6)nc4nc3OC(C)C)cnn2c1 [Comparator 2B, 7-isopropoxy-2-(1-methyl-2-oxabicyclo[2.1.1]hexan-4-yl)-N-(6-methylpyrazolo[1,5-a]pyrimidin-3-yl)imidazo[1,2-a]pyrimidine-6-carboxamide, reference compound]	–	–	0.3	–
CC(C)Oc1cc2nc(C34CCC(C)(CC3)OC4)cn2cc1C(=O)Nc1ccn(C)n1 [Comparator 5C, 7-isopropoxy-N-(1-methyl-1H-pyrazol-3-yl)-2-(1-methyl-2-oxabicyclo[2.2.2]octan-4-yl)imidazo[1,2-a]pyridine-6-carboxamide, reference compound]	2.2	39.6 (≈ 93.5 µM)	0.4	–
CC(C)Oc1cc2nc(C34CCC(C)(CC3)OC4)cn2cc1C(=O)Nc1cccn(C)c1=O [Comparator 5D, 7-isopropoxy-N-(1-methyl-2-oxo-1,2-dihydropyridin-3-yl)-2-(1-methyl-2-oxabicyclo[2.2.2]octan-4-yl)imidazo[1,2-a]pyridine-6-carboxamide, reference compound]	2	45.6 (≈ 101 µM)	0.6	–
CC(C)Oc1nc2nc(C34CCC(C)(CC3)OC4)cn2cc1C(=O)Nc1cccn(C)c1=O [Comparator 6D, 7-isopropoxy-N-(-methyl-2-oxo-1,2-dihydropyridin-3-yl)-2-(1-methyl-2-oxabicyclo[2.2.2]octan-4-yl)imidazo[1,2-a]pyrimidine-6-carboxamide, reference compound]	3	11.2 (≈ 24.8 µM)	0.4	–
CC(C)Oc1nc2nc(C34COC(CF)(C3)C4)cn2cc1C(=O)Nc1cccn(C2CC2)c1=O [Example 10, N-(1-cyclopropyl-2-oxo-1,2-dihydropyridin-3-yl)-2-(1-(fluoromethyl)-2-oxabicyclo[2.1.1]hexan-4-yl)-7-isopropoxyimidazo[1,2-a]pyrimidine-6-carboxamide]	–	79.3 (≈ 170 µM)	0.22	–
CC(C)Oc1nc2nc(C34COC(C)(C3)C4)cn2cc1C(=O)Nc1cccn(C2CC2)c1=O [Example 18, N-(1-cyclopropyl-2-oxo-1,2-dihydropyridin-3-yl)-7-isopropoxy-2-(1-methyl-2-oxabicyclo[2.1.1]hexan-4-yl)imidazo[1,2-a]pyrimidine-6-carboxamide]	–	–	0.7	–
O=C(Nc1cccn(C2CC2)c1=O)c1cn2cc(C34COC(CF)(C3)C4)nc2nc1OC1CCC1 [Example 33, 7-cyclobutoxy-N-(1-cyclopropyl-2-oxo-1,2-dihydropyridin-3-yl)-2-(1-(fluoromethyl)-2-oxabicyclo[2.1.1]hexan-4-yl)imidazo[1,2-a]pyrimidine-6-carboxamide]	–	10.1 (≈ 21.1 µM)	0.45	–
CC(C)Oc1nc2nc(C34COC(C)(C3)C4)cn2cc1C(=O)Nc1cccn([C@H]2C[C@H]2C)c1=O [Example 136, 7-isopropoxy-2-(1-methyl-2-oxabicyclo[2.1.1]hexan-4-yl)-N-(1-((1S,2R)-2-methylcyclopropyl)-2-oxo-1,2-dihydropyridin-3-yl)imidazo[1,2-a]pyrimidine-6-carboxamide]	–	–	0.4	–
CC(C)Oc1nc2nc(C34COC(C)(C3)C4)cn2cc1C(=O)Nc1cccn([C@H]2C[C@H]2F)c1=O [Example 159, N-(1-((1S,2R)-2-fluorocyclopropyl)-2-oxo-1,2-dihydropyridin-3-yl)-7-isopropoxy-2-(1-methyl-2-oxabicyclo[2.1.1]hexan-4-yl)imidazo[1,2-a]pyrimidine-6-carboxamide]	–	–	0.28	–
CC12CC(c3cn4cc(C(=O)Nc5cccn([C@H]6C[C@H]6F)c5=O)c(OC5CC5)cc4n3)(CO1)C2 [Example 175, 7-cyclopropoxy-N-(1-((1S,2R)-2-fluorocyclopropyl)-2-oxo-1,2-dihydropyridin-3-yl)-2-(1-methyl-2-oxabicyclo[2.1.1]hexan-4-yl)imidazo[1,2-a]pyridine-6-carboxamide]	8.9	43 (≈ 92.6 µM)	–	0.2
CC(C)Oc1cc2nc([C@@]34CC[C@@](C)(C3)OC4)cn2cc1C(=O)Nc1cccn([C@H]2C[C@H]2C)c1=O [Example 182, 7-isopropoxy-2-((1S,4R)-1-methyl-2-oxabicyclo[2.2.1]heptan-4-yl)-N-(1-((1S,2R)-2-methylcyclopropyl)-2-oxo-1,2-dihydropyridin-3-yl)imidazo[1,2-a]pyridine-6-carboxamide trifluoroacetate]	3.9	31.8	–	0.2
C[C@H](Oc1cc2nc(C34COC(C)(C3)C4)cn2cc1C(=O)Nc1cccn(C2C[C@H]2F)c1=O)C(F)F (stereo partly drawn) [Example 184, 7-(((S)-1,1-difluoropropan-2-yl)oxy)-N-(1-((1S,2R)-2-fluorocyclopropyl)-2-oxo-1,2-dihydropyridin-3-yl)-2-(1-methyl-2-oxabicyclo[2.1.1]hexan-4-yl)imidazo[1,2-a]pyridine-6-carboxamide]	19.2	73.4 (≈ 146 µM)	–	0.2
C[C@@H](Oc1cc2nc(C34COC(C)(C3)C4)cn2cc1C(=O)Nc1cccn(C2C[C@H]2F)c1=O)C(F)F (stereo partly drawn) [Example 185]	21.8	73.2 (≈ 146 µM)	–	0.1
C[C@@H]1C[C@@H]1n1cccc(NC(=O)c2cn3cc(C45COC(C)(C4)C5)nc3nc2OC2CCC2)c1=O [Example 188, 7-cyclobutoxy-2-(1-methyl-2-oxabicyclo[2.1.1]hexan-4-yl)-N-(1-((1S,2R)-2-methylcyclopropyl)-2-oxo-1,2-dihydropyridin-3-yl)imidazo[1,2-a]pyrimidine-6-carboxamide trifluoroacetate]	4.4	49.7	–	0.8
C[C@@H]1C[C@@H]1n1cccc(NC(=O)c2cn3cc(C45COC(C)(C4)C5)nc3cc2OC2CCC2)c1=O [Example 190, 7-cyclobutoxy-2-(1-methyl-2-oxabicyclo[2.1.1]hexan-4-yl)-N-(1-((1S,2R)-2-methylcyclopropyl)-2-oxo-1,2-dihydropyridin-3-yl)imidazo[1,2-a]pyridine-6-carboxamide trifluoroacetate]	4.1	54.2	–	0.9
